Assay results reported in ChEMBL document CHEMBL1201862, “PubChem BioAssay data set” (2004).
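How tested: cells in 96-well plates exposed to compound for 48 hours at five concentrations. The concentration for 50% growth inhibition is given as GI50.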 Active and inactive are the calls of the source. No stated cut-off is given here; in the data, active = GI50 up to about 1.1 µM and inactive = higher.

Key:
Assay in all cases: NCI-60 cell line screen, 48 h
OVCAR-8 = tested on: OVCAR-8
SK-MEL-5 = tested on: SK-MEL-5
HL-60 = tested on: HL-60
NCI-H522 = tested on: NCI-H522
COLO 205 = tested on: COLO 205
NCI-H460 = tested on: NCI-H460
MOLT-4 = tested on: MOLT-4
SN12C = tested on: SN12C
TK-10 = tested on: TK-10
A549 = tested on: A549
OVCAR-3 = tested on: OVCAR-3
CAKI-1 = tested on: CAKI-1
A498 = tested on: A498
NCI/ADR-RES = tested on: NCI/ADR-RES
MDA-N = tested on: MDA-N
SK-MEL-28 = tested on: SK-MEL-28
NCI-H226 = tested on: NCI-H226
MDA-MB-231 = tested on: MDA-MB-231
HOP-62 = tested on: HOP-62
MCF7 = tested on: MCF7

SMILES	GI50 (OVCAR-8)	GI50 (SK-MEL-5)	GI50 (HL-60)	GI50 (NCI-H522)	GI50 (COLO 205)	GI50 (NCI-H460)	GI50 (MOLT-4)	GI50 (SN12C)	GI50 (TK-10)	GI50 (A549)	GI50 (OVCAR-3)	GI50 (CAKI-1)	GI50 (A498)	GI50 (NCI/ADR-RES)	GI50 (MDA-N)	GI50 (SK-MEL-28)	GI50 (NCI-H226)	GI50 (MDA-MB-231)	GI50 (HOP-62)	GI50 (MCF7)
CO[C@@H](c1ccccc1)[C@H](O)[C@](O)(c1ccccc1)P(=O)(OC)OC	> 100 µM (inactive)	> 100 µM (inactive)	> 100 µM (inactive)	> 100 µM (inactive)	> 100 µM (inactive)	> 100 µM (inactive)	> 100 µM (inactive)	> 100 µM (inactive)	> 100 µM (inactive)	> 100 µM (inactive)	> 100 µM (inactive)	> 100 µM (inactive)	> 100 µM (inactive)	> 100 µM (inactive)	> 100 µM (inactive)	> 100 µM (inactive)	> 100 µM (inactive)	> 100 µM (inactive)		
CC1(c2ccc(Cl)cc2)c2ccccc2C(=O)N1CCCN1C(=O)c2ccccc2C1=O (centres undefined)	26.7 µM (inactive)	16.4 µM (inactive)	28.5 µM (inactive)		18.5 µM (inactive)		29.5 µM (inactive)	> 100 µM (inactive)	> 100 µM (inactive)	24.7 µM (inactive)	32.7 µM (inactive)	86.3 µM (inactive)	> 100 µM (inactive)	19.9 µM (inactive)	58.7 µM (inactive)	69.5 µM (inactive)	22.7 µM (inactive)	> 100 µM (inactive)	49.7 µM (inactive)	
C=C1C(=O)O[C@H]2[C@H]3O[C@@H](C[C@@H]12)[C@](C)(O)CCCC(C)=CCC[C@H]3C	5.97 µM (inactive)	10.8 µM (inactive)		4.36 µM (inactive)	3.38 µM (inactive)	5.18 µM (inactive)	2.08 µM (inactive)	11.9 µM (inactive)	3.24 µM (inactive)	16.8 µM (inactive)	13.9 µM (inactive)	10.8 µM (inactive)		8.2 µM (inactive)	16.1 µM (inactive)	11.5 µM (inactive)	18.1 µM (inactive)	11.7 µM (inactive)	16.7 µM (inactive)	7.26 µM (inactive)
O=c1[nH]c2nc(S)nc(S)c2[nH]1	> 100 µM (inactive)	> 100 µM (inactive)	> 100 µM (inactive)	> 100 µM (inactive)		> 100 µM (inactive)	> 100 µM (inactive)	> 100 µM (inactive)	> 100 µM (inactive)	> 100 µM (inactive)		> 100 µM (inactive)	> 100 µM (inactive)	> 100 µM (inactive)	> 100 µM (inactive)	> 100 µM (inactive)	> 100 µM (inactive)	> 100 µM (inactive)	> 100 µM (inactive)	
CCOP(=O)(CC1OC(CO)C(O)C1O)OCC (centres undefined)		> 100 µM (inactive)	> 100 µM (inactive)	> 100 µM (inactive)	> 100 µM (inactive)	> 100 µM (inactive)	> 100 µM (inactive)	> 100 µM (inactive)	> 100 µM (inactive)	> 100 µM (inactive)	> 100 µM (inactive)	> 100 µM (inactive)	> 100 µM (inactive)		> 100 µM (inactive)	> 100 µM (inactive)		> 100 µM (inactive)	> 100 µM (inactive)	> 100 µM (inactive)
CCn1c2ccccc2c2cc(/N=N\c3ccc(C#N)cc3)ccc21	39.3 µM (inactive)	50.7 µM (inactive)	32.1 µM (inactive)	38.9 µM (inactive)	74.5 µM (inactive)	64.7 µM (inactive)	> 100 µM (inactive)	> 100 µM (inactive)	32.1 µM (inactive)	26.9 µM (inactive)	> 100 µM (inactive)	20.4 µM (inactive)	25.8 µM (inactive)		69.5 µM (inactive)	> 100 µM (inactive)	56.8 µM (inactive)	17 µM (inactive)	28 µM (inactive)	4.41 µM (inactive)
S=C1/C(=N/c2ccccc2)N(C2CCCCC2)/C(=N\C2CCCCC2)N1c1ccccc1	> 100 µM (inactive)	> 100 µM (inactive)	> 100 µM (inactive)	6.73 µM (inactive)	47.6 µM (inactive)	38 µM (inactive)	> 100 µM (inactive)	47.8 µM (inactive)	> 100 µM (inactive)	60 µM (inactive)		> 100 µM (inactive)	> 100 µM (inactive)	> 100 µM (inactive)	> 100 µM (inactive)	> 100 µM (inactive)	> 100 µM (inactive)	> 100 µM (inactive)	51.8 µM (inactive)	
O=C(OCC(Cl)(Cl)Cl)O[C@@H]1CCCC1(c1ccccc1)c1ccccc1		35.9 µM (inactive)		38.7 µM (inactive)	> 100 µM (inactive)	71 µM (inactive)	6.81 µM (inactive)	> 100 µM (inactive)	> 100 µM (inactive)	65.3 µM (inactive)		> 100 µM (inactive)		> 100 µM (inactive)	72.4 µM (inactive)	78.7 µM (inactive)	37.5 µM (inactive)	> 100 µM (inactive)	> 100 µM (inactive)	55.1 µM (inactive)
O=C1C(=O)N(C23CC4CC(CC(C4)C2)C3)C(=S)N1c1ccccc1	97.9 µM (inactive)	61.2 µM (inactive)	42.8 µM (inactive)	17.1 µM (inactive)	> 100 µM (inactive)	97.9 µM (inactive)	> 100 µM (inactive)	> 100 µM (inactive)	58.9 µM (inactive)	65.5 µM (inactive)		> 100 µM (inactive)	> 100 µM (inactive)	66.2 µM (inactive)	> 100 µM (inactive)	> 100 µM (inactive)	60 µM (inactive)	> 100 µM (inactive)	> 100 µM (inactive)	
C=CC(C)(C)c1cc([C@@H]2COc3cc(O)ccc3C2=O)c(O)c(O)c1OC	16.4 µM (inactive)	19.7 µM (inactive)	22.7 µM (inactive)	17 µM (inactive)	26.7 µM (inactive)	66.4 µM (inactive)	25.7 µM (inactive)	17.6 µM (inactive)	> 100 µM (inactive)	33.7 µM (inactive)	15.8 µM (inactive)	13.2 µM (inactive)		24.8 µM (inactive)	22.2 µM (inactive)	27.8 µM (inactive)	39.3 µM (inactive)	25.2 µM (inactive)		17.4 µM (inactive)
O=C1CCC2(c3ccc(Cl)cc3)Nc3ncncc3N12 (centres undefined)	> 10 µM (inactive)			> 10 µM (inactive)		> 10 µM (inactive)	> 10 µM (inactive)	> 10 µM (inactive)	> 10 µM (inactive)	> 10 µM (inactive)	> 10 µM (inactive)			> 10 µM (inactive)	> 10 µM (inactive)		> 10 µM (inactive)	0.001 µM (active)		> 10 µM (inactive)
